Test results as given in PubChem BioAssay AID328 (DTP/NCI, 2004).
Where “and” joins values, the source holds several entries; their conditions need not be identical. Equal entries are not always repeated. Inconclusive results and toxic doses are left out.

System: BDF1 mice, P388 leukemia ip, median survival T/C
Test: NCI In Vivo Anticancer Drug Screen. Data for tumor model P388 Leukemia (intraperitoneal) in B6D2F1 (BDF1) mice
Conditions: endpoint: median survival time, higher = longer survival
In short: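 T/C = treated-group survival ÷ vehicle-control survival; tumour transplanted into mice before dosing.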

[1] = dose: 100.0 mg/kg/injection, schedule: Q01DX010 (ip), vehicle: saline
[2] = dose: 100.0 mg/kg/injection, schedule: Q01DX009 (ip), vehicle: saline
[3] = dose: 100.0 mg/kg/injection, schedule: Q04DX003 (ip), vehicle: saline
[4] = dose: 200.0 mg/kg/injection, schedule: Q04DX003 (ip), vehicle: saline
[5] = dose: 400.0 mg/kg/injection, schedule: Q01DX009 (ip), vehicle: saline
[6] = dose: 400.0 mg/kg/injection, schedule: Q04DX003 (ip), vehicle: saline
[7] = dose: 25.0 mg/kg/injection, schedule: Q01DX009 (ip), vehicle: saline with Tween-80
[8] = dose: 50.0 mg/kg/injection, schedule: Q01DX009 (ip), vehicle: saline with Tween-80
[9] = dose: 100.0 mg/kg/injection, schedule: Q01DX009 (ip), vehicle: saline with Tween-80
[10] = dose: 50.0 mg/kg/injection, schedule: Q01DX009 (ip), vehicle: Klucel (hydroxypropylcellulose) (HPC)
[11] = dose: 200.0 mg/kg/injection, schedule: Q04DX003 (ip), vehicle: Klucel (hydroxypropylcellulose) (HPC)
[12] = dose: 12.5 mg/kg/injection, schedule: Q01DX009 (ip), vehicle: saline with Tween-80
[13] = dose: 25.0 mg/kg/injection, schedule: Q01DX009 (ip), vehicle: saline
[14] = dose: 25.0 mg/kg/injection, schedule: Q04DX003 (ip), vehicle: saline
[15] = dose: 50.0 mg/kg/injection, schedule: Q04DX003 (ip), vehicle: saline
[16] = dose: 25.0 mg/kg/injection, schedule: Q04DX003 (ip), vehicle: saline with Tween-80
[17] = dose: 50.0 mg/kg/injection, schedule: Q04DX003 (ip), vehicle: saline with Tween-80

Structure (SMILES): C[C@H](N)C(=O)N[C@@H]1[C@H]2C(=C(O)C[C@@H](O)[C@@H]2O)C(=O)O[C@@H]1C
- T/C [1]: 162 % of control
- T/C (dose: 133.0 mg/kg/injection, schedule: Q04DX003 (ip), vehicle: saline): 112 % of control
- T/C (dose: 266.0 mg/kg/injection, schedule: Q04DX003 (ip), vehicle: saline): 119 % of control
- T/C (dose: 400.0 mg/kg/injection, schedule: Q01DX010 (ip), vehicle: saline): 162 % of control
- T/C (dose: 532.0 mg/kg/injection, schedule: Q04DX003 (ip), vehicle: saline): 120 % of control
- T/C (dose: 800.0 mg/kg/injection, schedule: Q01DX010 (ip), vehicle: saline): 175 % of control
- T/C (dose: 2428.0 mg/kg/injection, schedule: Q04DX003 (ip), vehicle: saline): 166 % of control

Structure (SMILES): COC(=O)CS(=O)(=O)C(C)(C)C(=O)c1ccccc1
- T/C (dose: 75.0 mg/kg/injection, schedule: Q01DX001 (ip), vehicle: other): 100 % of control
- T/C (dose: 150.0 mg/kg/injection, schedule: Q01DX001 (ip), vehicle: other): 120 % of control
- T/C (dose: 300.0 mg/kg/injection, schedule: Q01DX001 (ip), vehicle: other): 110 % of control

Structure (SMILES): O=C(CN1CCOCC1)N1CCOCC1
- T/C [2]: 90 % of control
- T/C [3]: 100 % of control
- T/C (dose: 200.0 mg/kg/injection, schedule: Q01DX009 (ip), vehicle: saline): 100 % of control
- T/C [4]: 95 % of control
- T/C [5]: 100 % of control
- T/C [6]: 104 % of control

Structure (SMILES): Cc1[nH]n(CCO)c(=O)c1N=O
- T/C (dose: 15.0 mg/kg/injection, schedule: Q01DX009 (ip), vehicle: saline with Tween-80): 95 % of control
- T/C (dose: 30.0 mg/kg/injection, schedule: Q01DX009 (ip), vehicle: saline with Tween-80): 93 % of control
- T/C (dose: 60.0 mg/kg/injection, schedule: Q01DX009 (ip), vehicle: saline with Tween-80): 100 % of control

Structure (SMILES): Cc1ccc(S(=O)(=O)c2ccc([N+](=O)[O-])c3no[n+]([O-])c23)cc1
- T/C [7]: 104 % of control
- T/C [8]: 108 % of control
- T/C [9]: 116 % of control

Structure (SMILES): CN1CCC(C(c2ccccc2)c2ccccc2)C1 (stereo not drawn)
- T/C [10]: 109 % of control

Structure (SMILES): COc1cccc(CCCC(=O)O)c1
- T/C [11]: 95 % of control
- T/C (dose: 400.0 mg/kg/injection, schedule: Q04DX003 (ip), vehicle: Klucel (hydroxypropylcellulose) (HPC)): 87 % of control

Structure (SMILES): CCOCCC(=O)O
- T/C [3]: 104 % of control
- T/C [4]: 109 % of control
- T/C [6]: 90 % of control

Structure (SMILES): CC1=C(/C=C/C(C)=C/C=C/C(C)=C/C(=O)O)C(C)(C)CCC1
- T/C (dose: 6.25 mg/kg/injection, schedule: Q01DX009 (ip), vehicle: saline with Tween-80): 95 % of control
- T/C [12]: 104 % of control
- T/C [7]: 104 % of control

Structure (SMILES): CCCCCCCCCCCCCC[N+](C)(C)CC(=O)O
- T/C [12]: 103 % of control
- T/C [7]: 106 % of control
- T/C [8]: 113 % of control

Structure (SMILES): CNC(=S)N/N=C/C(=O)c1ccco1
- T/C (dose: 22.5 mg/kg/injection, schedule: Q01DX009 (ip), vehicle: saline with Tween-80): 104 % of control
- T/C (dose: 45.0 mg/kg/injection, schedule: Q01DX009 (ip), vehicle: saline with Tween-80): 98 % of control
- T/C (dose: 90.0 mg/kg/injection, schedule: Q01DX009 (ip), vehicle: saline with Tween-80): 105 % of control

Structure (SMILES): S=C1SC(c2ccccc2)(c2ccccc2)c2ccccc21
- T/C (dose: 100.0 mg/kg/injection, schedule: Q01DX001 (ip), vehicle: saline with Tween-80): 100 % of control
- T/C (dose: 200.0 mg/kg/injection, schedule: Q01DX001 (ip), vehicle: saline with Tween-80): 94 % of control
- T/C (dose: 400.0 mg/kg/injection, schedule: Q01DX001 (ip), vehicle: saline with Tween-80): 93 % of control

Structure (SMILES): O=C(NCCNC(=O)c1cccc([N+](=O)[O-])c1O)c1cccc([N+](=O)[O-])c1O
- T/C (dose: 50.0 mg/kg/injection, schedule: Q01DX001 (ip), vehicle: Klucel (hydroxypropylcellulose) (HPC)): 100 % of control
- T/C (dose: 100.0 mg/kg/injection, schedule: Q01DX001 (ip), vehicle: Klucel (hydroxypropylcellulose) (HPC)): 100 % of control
- T/C (dose: 200.0 mg/kg/injection, schedule: Q01DX001 (ip), vehicle: Klucel (hydroxypropylcellulose) (HPC)): 104 % of control

Structure (SMILES): NC1CONC1=O (stereo not drawn)
- T/C [13]: 90 % of control
- T/C [14]: 104 % of control
- T/C (dose: 50.0 mg/kg/injection, schedule: Q01DX009 (ip), vehicle: saline): 95 % of control
- T/C [15]: 100 % of control
- T/C [2]: 90 % of control
- T/C [3]: 104 % of control
- T/C [4]: 100 % of control
- T/C [5]: 100 % of control
- T/C [6]: 100 % of control

Structure (SMILES): Nc1nc(N)c2cc(CNc3ccc(C(=O)NC(CC(=O)O)CC(=O)O)cc3)ccc2n1
- T/C (dose: 132.0 mg/kg/injection, schedule: Q01DX009 (ip), vehicle: saline with Tween-80): 90 % of control

Structure (SMILES): CCCn1cnc2c(=S)nc(N)[nH]c21
- T/C (dose: 6.25 mg/kg/injection, schedule: Q01DX009 (ip), vehicle: Klucel (hydroxypropylcellulose) (HPC)): 100 % of control
- T/C (dose: 12.5 mg/kg/injection, schedule: Q01DX009 (ip), vehicle: Klucel (hydroxypropylcellulose) (HPC)): 86 % of control
- T/C (dose: 25.0 mg/kg/injection, schedule: Q01DX009 (ip), vehicle: Klucel (hydroxypropylcellulose) (HPC)): 86 % of control
- T/C (dose: 29.0 mg/kg/injection, schedule: Q04DX003 (ip), vehicle: Klucel (hydroxypropylcellulose) (HPC)): 110 % of control
- T/C (dose: 45.0 mg/kg/injection, schedule: Q04DX003 (ip), vehicle: Klucel (hydroxypropylcellulose) (HPC)): 115 % of control
- T/C [10]: 105 % of control
- T/C (dose: 150.0 mg/kg/injection, schedule: Q04DX003 (ip), vehicle: Klucel (hydroxypropylcellulose) (HPC)): 150 % of control
- T/C [11]: 118 % of control

Structure (SMILES): O=C(CNC(=O)Nc1n[nH]c(=S)s1)NNC(=S)Nc1ccccc1
- T/C [8]: 115 % of control
- T/C [9]: 118 % of control
- T/C (dose: 200.0 mg/kg/injection, schedule: Q01DX009 (ip), vehicle: saline with Tween-80): 109 % of control

Structure (SMILES): CSc1ccc(NC(=O)N(CCCl)N=O)cc1
- T/C (dose: 6.25 mg/kg/injection, schedule: Q01DX009 (ip), vehicle: saline): 100 % of control
- T/C (dose: 6.25 mg/kg/injection, schedule: Q04DX003 (ip), vehicle: saline sonified): 90 % of control
- T/C (dose: 11.0 mg/kg/injection, schedule: Q04DX003 (ip), vehicle: saline sonified): 100 % of control
- T/C (dose: 12.5 mg/kg/injection, schedule: Q01DX009 (ip), vehicle: saline): 100 % of control
- T/C (dose: 12.5 mg/kg/injection, schedule: Q04DX003 (ip), vehicle: saline sonified): 109 % of control
- T/C (dose: 16.0 mg/kg/injection, schedule: Q04DX003 (ip), vehicle: saline sonified): 122 % of control
- T/C [13]: 116 % of control
- T/C (dose: 37.5 mg/kg/injection, schedule: Q04DX003 (ip), vehicle: saline sonified): 122 % of control

Structure (SMILES): CC(C)(C)NCCC(O)c1cc2c(Cl)cc(Cl)cc2c2cc(C(F)(F)F)ccc12 (stereo not drawn)
- T/C [12]: 90 % of control
- T/C [7]: 106 % of control
- T/C [8]: 108 % of control and 114 % of control

Structure (SMILES): OCCN1CCN(CCCN2c3ccccc3Oc3ccc(C(F)(F)F)cc32)CC1
- T/C (dose: 15.0 mg/kg/injection, schedule: Q04DX003 (ip), vehicle: saline): 105 % of control
- T/C [13]: 104 % of control
- T/C (dose: 30.0 mg/kg/injection, schedule: Q04DX003 (ip), vehicle: saline): 115 % of control
- T/C [10]: 150 % of control
- T/C (dose: 120.0 mg/kg/injection, schedule: Q04DX003 (ip), vehicle: saline): 105 % of control

Structure (SMILES): Cc1ncc(CO)c(C)c1O
- T/C (dose: 12.5 mg/kg/injection, schedule: Q01DX010 (ip), vehicle: saline): 100 % of control
- T/C (dose: 25.0 mg/kg/injection, schedule: Q01DX010 (ip), vehicle: saline): 100 % of control
- T/C (dose: 50.0 mg/kg/injection, schedule: Q01DX010 (ip), vehicle: saline): 100 % of control
- T/C [1]: 100 % of control

Structure (SMILES): NC(=S)N/N=C/c1ncccc1F
- T/C [16]: 110 % of control
- T/C [17]: 119 % of control

Structure (SMILES): C(=NC12CC3CC(CC(C3)C1)C2)c1ccccc1
- T/C [14]: 105 % of control
- T/C [15]: 99 % of control
- T/C [3]: 107 % of control
- T/C [4]: 105 % of control

Structure (SMILES): O=C(/C=C/c1ccc(Cl)c(Cl)c1)c1ccc(Cl)cc1
- T/C (dose: 12.5 mg/kg/injection, schedule: Q04DX003 (ip), vehicle: saline with Tween-80): 100 % of control
- T/C [16]: 100 % of control
- T/C [17]: 90 % of control
